Test results: patent US7501425B1, “Bicyclic pyrimidines and bicyclic 3,4-dihydropyprimidines as inhibitors of cellular proliferation” (Warner Lambert Company, priority 1999, dated 2009)
Where a name gives a salt, the structure may show the parent alone.

| Structure (SMILES) | melting point |
| --- | --- |
| CN(C)C1CCN(c2ccc(Nc3ncc4cnc(=O)n(C)c4n3)cc2)CC1 [Example 46, 7-{4-[4-(Dimethylamino)piperidin-1-yl]phenylamino}-1-methyl-pyrimido[4,5-d]pyrimidin-2(1H)-one] | 198 to 202 °C (dec.) |
| O=C1NCc2cnc(Nc3ccc(N4CCCCC4CO)cc3)nc2N1C1CCCC1 (stereo not drawn) [Example 19, 1-Cyclopentyl-7-[4-(2-hydroxymethylpiperidin-1-yl)phenylamino]-3,4-dihydro-pyrimido[4,5-d]pyrimidin-2(1H)-one] | 220 to 221 °C |
| O=c1ncc2cnc(Nc3ccc(N4CCC(CCN5CCOCC5)CC4)cc3)nc2n1C1CCCC1 [Example 39] | > 140 °C (dec.) |
| CCNc1nc(SC)ncc1CNc1cc(OC)cc(OC)c1Cl [Example 62, {5-[(2-Chloro-3,5-dimethoxy-phenylamino)-methyl]-2-methylsulfanyl-pyrimidin-4-yl}-ethyl-amine] | 116.5 to 118.5 °C |
| O=c1ncc2cnc(Nc3ccc(-n4cccn4)cc3)nc2n1C1CCCC1 [Example 36, 1-Cyclopentyl-7-[4-(pyrazol-1-yl)phenylamino]pyrimido[4,5-d]pyrimidin-2(1H)-one] | > 135 °C (dec.) |
| CCNc1nc(SC)ncc1C=Nc1cc(OC)cc(OC)c1 [Example 48a, {5-[(3,5-Dimethoxy-phenylimino)-methyl]-2-methylsulfanyl-pyrimidin-4-yl}-ethyl-amine] | 100 to 105 °C |
| COc1ccc(Nc2ncc3c(n2)N(C2CCCC2)C(=O)NC3)cc1 [Example 9, 1-Cyclopentyl-7-(4-methoxyphenylamino)-3,4-dihydro-pyrimido[4,5-d]pyrimidin-2(1H)-one] | 247 to 249 °C (dec.) |
| CCN(CC)CCCCNc1ncc2c(n1)NC(=O)N(c1cc(OC)cc(OC)c1)C2 [Example 52, 7-(4-Diethylamino-butylamino)-3-(3,5-dimethoxy-phenyl)-3,4-dihydro-pyrimido[4,5-d]pyrimidin-2(1H)-one] | 203 to 207 °C |
| COc1ccc(Cn2c(=O)c3cnc(Nc4ccc(N5CCN(C)CC5)cc4)nc3n(C(C)C)c2=O)cc1 [Example 71, 1-Isopropyl-3-(4-methoxybenzyl)-7-[4-(4-methylpiperazin-1-yl)phenylamino]-1H-pyrimido[4,5-d]pyrimidine-2,4-dione] | 215 to 216 °C |
| CCN(CC)CCOc1ccc(Nc2ncc3c(n2)N(C2CCCC2)C(=O)NC3)cc1C [Example 13, 1-Cyclopentyl-7-{3-methyl-4-[2-(diethylamino)ethoxy]phenylamino}-3,4-dihydro-pyrimido[4,5-d]pyrimidin-2(1H)-one] | 175 to 177 °C |
| CC(C)N1C(=O)NCc2cnc(Nc3ccc(-n4cccn4)cc3)nc21.O=C(O)C(F)(F)F [Example 25, 1-Isopropyl-7-[4-(pyrazol-1-yl)phenylamino]-3,4-dihydro-pyrimido[4,5-d]pyrimidin-2(1H)-one; compound with trifluoroacetic acid] | 249 to 252 °C (dec.) |
| CN1CCN(c2ccc(Nc3ncc4cnc(=O)n(C5CCCC5)c4n3)cc2)CC1 [Example 32, 1-Cyclopentyl-7-[4-(4-methylpiperazin-1-yl)phenylamino]pyrimido-[4,5-d]pyrimidin-2(1H)-one] | 220 to 225 °C (dec.) |
| CCNc1nc(SC)ncc1C=Nc1cc(OC)cc(OC)c1Cl [Example 61, {5-[(2-Chloro-3,5-dimethoxy-phenylimino)-methyl]-2-methylsulfanyl-pyrimidin-4-yl}-ethyl-amine] | 196.5 to 198.5 °C |
| O=C1NCc2cnc(Nc3ccc(N4CCC(O)CC4)cc3)nc2N1C1CCCC1 [Example 15, 1-Cyclopentyl-7-[4-(4-hydroxypiperidin-1-yl)phenylamino]-3,4-dihydro-pyrimido [4,5-d]pyrimidin-2(1H)-one] | > 200 °C (dec.) |
| CC(C)n1c(=O)ncc2cnc(Nc3ccc(N4CCC(N(C)C)CC4)cc3)nc21 [Example 41, 7-{4-[4-(Dimethylamino)piperidin-1-yl]phenylamino}-1-isopropyl-pyrimido[4,5-d]pyrimidin-2(1H)-one] | > 100 °C (dec.) |
| CCN1C(=O)N(c2cc(OC)cc(OC)c2)Cc2cnc(SC)nc21 (hydrate or solvate) [Example 50a, 3-(3,5-Dimethoxy-phenyl)-1-ethyl-7-methylsulfanyl-3,4-dihydro-pyrimido[4,5-d]pyrimidin-2(1H)-one] | 134 to 136 °C |
| O=C1NCc2cnc(Nc3ccc(N4CCCCC4)cc3)nc2N1C1CCCC1 [Example 10, 1-Cyclopentyl-7-[4-(piperidin-1-yl)phenylamino]-3,4-dihydro-pyrimido [4,5-d]pyrimidin-2(1H)-one] | 254 to 277 °C (dec.) |
| CCN(CC)CCOc1ccc(Nc2ncc3c(n2)N(CC)C(=O)N(c2cc(OC)cc(OC)c2)C3)cc1 (as salt: salt) (hydrate or solvate) [Example 53a, 7-[4-(2-Diethylamino-ethoxy)-phenylamino]-3-(3,5-dimethoxy-phenyl)-1-ethyl-3,4-dihydro-pyrimido[4,5-d]pyrimidin-2(1H)-one] | 139 to 141 °C |

| Structure (SMILES) | melting point |
| --- | --- |
| COc1ccc(Cn2c(=O)c3cnc(-n4ccnc4)nc3n(C(C)C)c2=O)cc1 [Example 69, 7-(Imidazol-1-yl)-1-isopropyl-3-(4-methoxybenzyl)-1H-pyrimido[4,5-d]pyrimidine-2,4-dione] | 148 to 150 °C (dec.) |
| COc1cc(OC)cc(N2Cc3cnc([S+](C)[O-])nc3NC2=O)c1 (stereo not drawn) [Example 51, 3-(3,5-Dimethoxy-phenyl)-7-methanesulfinyl-3,4-dihydro-pyrimido [4,5-d]pyrimidin-2(1H)-one] | 220 to 222 °C |
| O=C1NCc2cnc(Nc3ccc(N4CCC(CCCO)CC4)cc3)nc2N1C1CCCC1 [Example 20, 1-Cyclopentyl-7-{4-[4-(3-hydroxypropyl)piperidin-1-yl]phenylamino}-3,4-dihydro-pyrimido[4,5-d]pyrimidin-2(1H)-one] | > 230 °C |
| CCN(CC)CCOc1ccc(Nc2ncc3cnc(=O)n(C4CCCC4)c3n2)cc1C [Example 34, 1-Cyclopentyl-7-{3-methyl-4-[2-(diethylamino)ethoxy]-phenylamino}pyrimido[4,5-d]pyrimidin-2(1H)-one] | > 95 °C (dec.) |
| COc1cc(OC)cc(N2Cc3cnc(SC)nc3N=C2N)c1 [Example 66, 3-(3,5-Dimethoxy-phenyl)-7-methylsulfanyl-3,4-dihydro-pyrimido [4,5-d]pyrimidin-2-ylamine] | 198 to 204 °C |
| CCN(CC)CCCCNc1ncc2c(n1)N(CC)C(=O)N(c1cc(OC)cc(OC)c1)C2 (hydrate or solvate) [Example 53, 7-(4-Diethylamino-butylamino)-3-(3,5-dimethoxy-phenyl)-1-ethyl-3,4-dihydro-pyrimido[4,5-d]pyrimidin-2(1H)-one] | 83 to 85 °C |
| CCN(CC)CCOc1ccc(Nc2ncc3c(=O)n(Cc4ccc(OC)cc4)c(=O)n(C(C)C)c3n2)cc1 [Example 73, 7-[4-(2-Diethylaminoethoxy)phenylamino]-1-isopropyl-3-(4-methoxybenzyl)-1H-pyrimido[4,5-d]pyrimidine-2,4-dione] | 139 to 141 °C |
| C[S+]([O-])c1ncc2c(n1)N(C1CCCC1)C(=O)NC2 (stereo not drawn) [Example 5, 1-Cyclopentyl-7-methanesulfinyl-3,4-dihydro-pyrimido[4,5-d]pyrimidin-2(1H)-one] | 235 to 236 °C (dec.) |
| CN1CCN(c2ccc(Nc3ncc4c(n3)N(C3CCCC3)C(=O)NC4)cc2)CC1 [Example 11, 1-Cyclopentyl-7-[4-(4-methylpiperazin-1-yl)phenylamino]-3,4-dihydro-pyrimido[4,5-d]pyrimidin-2(1H)-one] | 236 to 239 °C (dec.) |
| CC1CN(c2ccc(Nc3ncc4c(n3)N(C3CCCC3)C(=O)NC4)cc2)CC(C)N1 (stereo not drawn) [Example 18, 1-Cyclopentyl-7-[4-(3,5-dimethylpiperazin-1-yl)phenylamino]-3,4-dihydro-pyrimido[4,5-d]pyrimidin-2(1H)-one] | > 200 °C (dec.) |
| CC(C)N1C(=O)NCc2cnc(Nc3ccc(N4CCC(O)CC4)cc3)nc21 [Example 23, 7-[4-(4-Hydroxypiperidin-1-yl)phenylamino]-1-isopropyl-3,4-dihydro-pyrimido[4,5-d]pyrimidin-2(1H)-one] | > 120 °C (dec.) |
| CN1C(=O)NCc2cnc(Nc3ccc(N4CCC(N(C)C)CC4)cc3)nc21.O=C(O)C(F)(F)F [Example 30, 7-{4-[4-(Dimethylamino)piperidin-1-yl]phenylamino}-1-methyl-3,4-dihydro-pyrimido[4,5-d]pyrimidin-2(1H)-one; compound with trifluoroacetic acid] | 190 to 191 °C (dec.) |
| CC(C)N1C(=O)NCc2cnc([S+](C)[O-])nc21 (stereo not drawn) [Example 6, 1-Isopropyl-7-methanesulfinyl-3,4-dihydro-pyrimido[4,5-d]pyrimidin-2(1H)-one] | 218 to 219 °C (dec.) |
| C=CCn1c(=O)c2cnc(-n3ccnc3)nc2n(C(C)C)c1=O [Example 68, 3-Allyl-7-(imidazol-1-yl)-1-isopropyl-1H-pyrimido [4,5-d]pyrimidine-2,4-dione] | 158 to 160 °C |
| O=C1NCc2cnc(Nc3ccc(N4CCCC(O)C4)cc3)nc2N1C1CCCC1 (stereo not drawn) [Example 16, 1-Cyclopentyl-7-[4-(3-hydroxypiperidin-1-yl)phenylamino]-3,4-dihydro-pyrimido[4,5-d]pyrimidin-2(1H)-one] | > 200 °C (dec.) |
| CCN1C(=O)N(c2cc(OC)cc(OC)c2Cl)Cc2cnc(SC)nc21 [Example 63, 3-(2-Chloro-3,5-dimethoxy-phenyl)-1-ethyl-7-methylsulfanyl-3,4-dihydro-pyrimido[4,5-d]pyrimidin-2(1H)-one] | 189 to 191 °C |
| O=c1ncc2cnc(Nc3ccc(N4CCCC(O)C4)cc3)nc2n1C1CCCC1 (stereo not drawn) [Example 35, 1-Cyclopentyl-7-[4-(3-hydroxypiperidin-1-yl)phenylamino]pyrimido[4,5-d]-pyrimidin-2(1H)-one] | > 135 °C (dec.) |
| O=c1ncc2cnc(Nc3ccc(N4CCC(O)CC4)cc3)nc2n1C1CCCC1 [Example 33, 1-Cyclopentyl-7-[4-(4-hydroxypiperidin-1-yl)phenylamino]pyrimido[4,5-d]pyrimidin-2(1H)-one] | > 185 °C (dec.) |
